Ends that are not written are not given here.
Legend:
CD8^+ T cells [1] = test: IFN-γ ELISPOT with CD8^+ T cells of DENV2-infected C57BL/6 mice; format: cell-based; conditions: PL046 or S221 infected C57BL/6 mice
CD8^+ T cells [2] = test: Intracellular cytokine staining (IFN-γ), splenocytes of S221-infected wild-type mice; format: cell-based, C57BL/6 mice
Method: (§1) All Ab were purchased from eBioscience with the exception of anti-CD8α-PerCP and anti-CD107a-FITC which were obtained from BD Biosciences. RBC in blood were lysed using RBC lysis buffer (eBioscience). For surface staining, splenocytes or blood cells were washed, incubated with supernatant from 2.4G2-producing hybridoma cells to block Fc receptors, and labeled with anti-CD8α-PerCP, anti-CD44-APC, and anti-CD62L-PE. For intracellular cytokine staining, 10^6 splenocytes or 10^5 blood cells were plated in 96-well U-bottom plates and stimulated with individual DENV peptides (0.1 μg/ml) in the presence of brefeldin A (GolgiPlug, BD Biosciences) for 5 h. For CD107a staining, CD107a-FITC (or rat IgG2a-FITC) was added to the wells at the same time as the peptide. Cells were washed, incubated with 2.4G2 supernatant, labeled with anti-CD8α-PerCP, fixed and permeabilized using the BD Cytofix/Cytoperm Kit, and stained with anti-IFN-γ-APC and anti-TNF-α-PE. Samples were read on a FACS Caliber (BD Biosciences) and analyzed using FloJo software (Tree Star, Inc.)
To confirm that the IFN-γ response to the MHC class I-binding DENV peptides was mediated by CD8^+ T cells, intracellular cytokine staining (ICS) on CD8^+ T cells isolated from S221-infected wild-type mice was performed. Splenocytes were harvested from C57BL/6 mice 7 days after infection with 10^11 genomic equivlalents (GE) S221 and were re-stimulated in vitro with individual DENV2 peptides or an irrelevant peptide (irr) at 0.1 μg/ml in the presence of brefeldin A for 5 h. Cells were then stained for surface CD8 and intracellular IFN-γ and analyzed by flow cytometry. […] The percent of CD8^+ T cells producing IFN-γ is indicated. Referring to FIG. 2B, the figure is a summary of the DENV2-specific CD8^+ IFN-γ^+ response. The response to the irrelevant control peptide was subtracted from the responses to each DENV2 peptide. Each symbol represents one mouse and the bar represents the geometric mean. The identification of the 12 positive peptides for S221 was confirmed by the intracellular cytokine staining (ICS) (FIG. 2A), and the response to the 8 most dominant peptides was determined (FIG. 2B). The responses ranged from 0.14% recognizing NS2A 36 to 9.8% of CD8^+ T cells recognizing NS4B 99.
Splenocytes were harvested from naïve C57BL/6 mice or mice 7 days after infection with 10^11 GE of S221. The percent of CD8^+ T cells expressing CD44 and CD62L was determined in four independent studies (FIG. 3A). On day 7 after infection, splenocytes were stimulated with the eight major DENV2 peptides (individually; at 0.1 μg/ml) in the presence of brefeldin A, and stained for surface CD8 and intracellular IFN-γ. The percent of CD8^+ T cells producing IFN-γ in response to the irrelevant control peptide was subtracted from the response to each DENV2 peptide to determine the net response. The net responses to the eight major DENV2 peptides were added to determine the percent of DENV2-specific CD44^hi, CD62^lo, and CD44^hiCD62L^lo CD8^+ T cells (FIG. 3B). The data are expressed as the mean percent±SEM of 11-14 mice tested in at least four independent experiments.

CD8^+ T cells [3] = test: Intracellular cytokine staining (IFN-γ), splenocytes of S221-infected IFN-α/βR^−/− mice; format: cell-based; conditions: day 7 after 10^10 GE S221
Method: as §1
The S221-specific CD8^+ T cell response in the IFN-α/βR^−/− mice was studied. […]
The S221-specific CD8^+ T cell response in IFN-α/βR^−/− mice was further studied. […] Referring to FIGS. 5C, 5E and 5F, the number of splenic CD8^+ T cells in naïve (n=4) and infected (n=7) mice was measured (results described above). […] The data are expressed as the percent±SEM of seven mice tested in three independent experiments.
The initial epitope identification studies were performed in wild-type mice. […] Cells were then stained for surface CD8 and intracellular IFN-γ and analyzed by flow cytometry. […] Results are expressed as the mean±SEM of 13 wild-type and 7 IFN-α/βR^−/− mice were tested in at least three independent experiments. Referring FIGS. 8C and D, the figures show kinetics of the DENV-specific CD8^+ T cell response as determined by the study. […]

## YSQVNPITL [NS4B99-107]
CD8^+ T cells [1]
  IFN-γ ELISPOT response (net SFC per 10^6 CD8^+ T cells), in words: highest responses
CD8^+ T cells [2]; wild-type C57BL/6, day 7 after 10^11 GE S221, peptide 0.1 μg/ml, 5 h
  percent of CD8^+ T cells producing IFN-γ / recognizing the peptide: 9.8%
CD8^+ T cells [2]; wild-type C57BL/6 mice
  share of the DENV2-specific response: 30%
CD8^+ T cells [2]; wild-type mice, day 7 after 10^11 GE S221
  % of splenic CD8^+ T cells (corresponding to average number): 5.9%
CD8^+ T cells [2]; wild-type mice, spleen, day 7 after 10^11 GE S221
  number of CD8^+ T cells producing IFN-γ (average): 6.3×10^5 CD8^+ T cells
CD8^+ T cells [3]
  % of splenic CD8^+ T cells recognizing the peptide: 16.5%
CD8^+ T cells [3]; spleen
  number of CD8^+ T cells producing IFN-γ (average): 1.1×10^7 CD8^+ T cells
